Data: EP1339725B1, “DNA METHYL TRANSFERASE INHIBITORS” (priority 2000, dated 2002)

What was measured:
Brucella abortus CcrM = Brucella abortus CcrM (Brucella abortus, UniProt Q2YMK2); type: biochemical
[1] = tested on: Caulobacter crescentus (CB15N); assay: Caulobacter crescentus cell growth assay; type: cell-based; details: PYE media with 200 µg/mL ampicillin, 30°C, growth monitored at 630 nm up to 22 hours
[2] = tested on: Bacillus subtilis (ATCC #33234); assay: Bacillus subtilis cell growth assay; type: cell-based; details: LB media without antibiotics, 37°C, growth monitored up to 7.5 hours

Chain of Brucella abortus CcrM (Q2YMK2 whole entry, looked up): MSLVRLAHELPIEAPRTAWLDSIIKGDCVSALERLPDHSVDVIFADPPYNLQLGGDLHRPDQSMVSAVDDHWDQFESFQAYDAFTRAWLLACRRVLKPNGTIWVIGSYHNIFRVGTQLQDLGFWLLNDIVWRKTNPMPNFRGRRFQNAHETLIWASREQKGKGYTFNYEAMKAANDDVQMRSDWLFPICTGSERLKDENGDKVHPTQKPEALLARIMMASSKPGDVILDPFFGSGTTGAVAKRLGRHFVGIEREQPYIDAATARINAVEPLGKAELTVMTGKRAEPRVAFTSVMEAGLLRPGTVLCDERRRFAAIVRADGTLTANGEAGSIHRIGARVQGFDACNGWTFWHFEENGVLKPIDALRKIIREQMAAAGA

Molecule | % reaction Brucella abortus CcrM Activity (Brucella abortus CcrM) [%] | IC50 [1] [µM] | IC50 [2] [µM]
Fc1ccc(B(Oc2cccc3cccnc23)c2ccc(F)cc2)cc1 [Compound 11ii, Di-(4-fluorophenyl)borinic acid 8-hydroxyquinoline ester] | 61 |  | 
Clc1ccc(B(Oc2cccc3cccnc23)c2ccc(Cl)cc2)cc1 [Compound 11iii, Di-(4-chlorophenyl)borinic acid 8-hydroxyquinoline ester] | 61 |  | 
c1cnc2c(OB(c3ccc4c(c3)OCO4)c3ccc4c(c3)OCO4)cccc2c1 [Compound 11vi, Di-(3,4-methylenedioxyphenyl)borinic acid 8-hydroxyquinoline ester] | 42 |  | 
c1csc(B(Oc2cccc3cccnc23)c2cccs2)c1 [Compound 11viii, Di-(2-thienyl)borinic acid 8-hydroxyquinoline ester] | 74 |  | 
Cc1ccc2cccc(OB(c3ccc(F)cc3)c3ccc(F)cc3)c2n1 [Compound 12ii, Di-(p-fluorophenyl)borinic acid 8-hydroxyquinaldine ester] | 17 |  | 
Cc1ccc2cccc(OB(c3ccc(Cl)cc3)c3ccc(Cl)cc3)c2n1 [Compound 12iii, Di-(p-chlorophenyl)borinic acid 8-hydroxyquinaldine ester] | 40 |  | 
COc1ccc(B(Oc2cccc3ccc(C)nc23)c2ccc(OC)cc2)cc1 [Compound 12vii, Di-(4-methoxyphenyl)borinic acid 8-hydroxyquinaldine ester] | 56 |  | 
Fc1ccc(B(Oc2ccc(Cl)c3cccnc23)c2ccc(F)cc2)cc1 [Compound 13ii, Di-(p-fluorophenyl)borinic acid 5-chloro-8-hydroxyquinaline ester] | 55 |  | 
Clc1ccc(B(Oc2ccc(Cl)c3cccnc23)c2ccc(Cl)cc2)cc1 [Compound 13iii, Di-(p-chlorophenyl)borinic acid 5-chloro-8-hydroxyquinaline ester] | 81 |  | 
O=[N+]([O-])c1ccc(OB(c2ccc3c(c2)OCO3)c2ccc3c(c2)OCO3)c2ncccc12 [Compound 14vi, Di-(3,4-methylenedioxyphenyl)borinic acid 8-hydroxy-5-nitroquinoline ester] | 21 |  | 
c1ccc(B(OCc2ccccn2)c2ccccc2)cc1 [Compound 16i, Diphenylborinic acid pyridine-2-methanol] | 93 |  | 
c1ccc(B(OC[C@@H]2CCCN2)c2ccccc2)cc1 [Compound 18i, Diphenylborinic acid (S)-(+)-pyrrolidine-2-methanol] | 81 | > 100 | > 100
NCCOB(c1ccc(F)cc1)c1ccc(F)cc1 [Compound 19ii, Di-(4-fluorophenyl)borinic acid ethanolamine ester] | 8 |  | 
Diphenylborinic acid 2-amino-1-phenylpropanol [Compound 17i] | 114 | > 100 | > 100
